Article PMC6437697 (Journal of Medicinal Chemistry, 2019)

Legend:
Experiment in all cases: KINOMEscan
Assay type in all cases: binding
Settings in all cases: read-out: % control activity remaining
MKK7 = molecular target: T1, MKK7 (Homo sapiens, UniProt O14733)
T1 construct: purchased Eurofins DiscoverX KINOMEscan
T1 sequence (O14733 1-419): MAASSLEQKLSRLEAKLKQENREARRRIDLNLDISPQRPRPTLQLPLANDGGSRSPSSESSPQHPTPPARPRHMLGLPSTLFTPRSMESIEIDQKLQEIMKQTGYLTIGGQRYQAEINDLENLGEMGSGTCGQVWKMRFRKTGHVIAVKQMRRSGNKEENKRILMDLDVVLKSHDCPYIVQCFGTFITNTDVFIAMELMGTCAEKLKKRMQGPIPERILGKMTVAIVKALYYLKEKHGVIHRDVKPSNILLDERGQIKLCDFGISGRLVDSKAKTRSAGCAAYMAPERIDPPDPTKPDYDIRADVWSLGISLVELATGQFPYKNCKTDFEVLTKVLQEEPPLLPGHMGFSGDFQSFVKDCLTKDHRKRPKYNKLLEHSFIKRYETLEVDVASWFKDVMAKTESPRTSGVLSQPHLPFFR

RIOK2 = molecular target: T2, RIOK2 (Homo sapiens, UniProt Q9BVS4)
T2 construct: purchased Eurofins DiscoverX KINOMEscan

FLT3(K663Q) = molecular target: T3, FLT3(K663Q) (Homo sapiens, UniProt P36888, K663Q)
T3 construct: purchased Eurofins DiscoverX KINOMEscan
T3 sequence (P36888 27-993 K663Q): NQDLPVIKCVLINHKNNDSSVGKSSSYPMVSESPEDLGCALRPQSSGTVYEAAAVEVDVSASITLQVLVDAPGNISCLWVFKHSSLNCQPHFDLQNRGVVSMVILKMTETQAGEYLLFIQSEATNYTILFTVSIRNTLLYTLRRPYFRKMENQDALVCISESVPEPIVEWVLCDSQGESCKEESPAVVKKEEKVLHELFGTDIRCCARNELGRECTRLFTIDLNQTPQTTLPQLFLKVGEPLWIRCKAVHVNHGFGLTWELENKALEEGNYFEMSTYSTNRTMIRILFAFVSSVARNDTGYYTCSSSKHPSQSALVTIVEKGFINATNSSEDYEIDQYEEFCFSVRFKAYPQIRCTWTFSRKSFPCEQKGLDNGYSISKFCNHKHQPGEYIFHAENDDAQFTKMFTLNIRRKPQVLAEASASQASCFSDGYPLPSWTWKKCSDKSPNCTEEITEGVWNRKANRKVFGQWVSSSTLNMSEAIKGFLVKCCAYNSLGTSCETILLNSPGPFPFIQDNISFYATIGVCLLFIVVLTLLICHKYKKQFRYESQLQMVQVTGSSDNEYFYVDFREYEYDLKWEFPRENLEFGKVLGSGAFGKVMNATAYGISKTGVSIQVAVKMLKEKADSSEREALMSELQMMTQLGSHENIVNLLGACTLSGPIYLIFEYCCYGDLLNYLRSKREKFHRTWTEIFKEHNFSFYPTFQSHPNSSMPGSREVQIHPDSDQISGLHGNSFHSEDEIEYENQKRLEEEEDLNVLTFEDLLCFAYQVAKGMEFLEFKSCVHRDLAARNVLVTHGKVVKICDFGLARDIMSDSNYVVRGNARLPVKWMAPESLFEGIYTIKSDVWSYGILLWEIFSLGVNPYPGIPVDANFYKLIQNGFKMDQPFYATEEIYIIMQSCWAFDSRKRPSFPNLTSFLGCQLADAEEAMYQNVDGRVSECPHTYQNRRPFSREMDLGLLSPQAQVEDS

PKMYT1 = molecular target: T4, PKMYT1 (Homo sapiens, UniProt Q99640)
T4 construct: purchased Eurofins DiscoverX KINOMEscan
T4 sequence (Q99640 1-499): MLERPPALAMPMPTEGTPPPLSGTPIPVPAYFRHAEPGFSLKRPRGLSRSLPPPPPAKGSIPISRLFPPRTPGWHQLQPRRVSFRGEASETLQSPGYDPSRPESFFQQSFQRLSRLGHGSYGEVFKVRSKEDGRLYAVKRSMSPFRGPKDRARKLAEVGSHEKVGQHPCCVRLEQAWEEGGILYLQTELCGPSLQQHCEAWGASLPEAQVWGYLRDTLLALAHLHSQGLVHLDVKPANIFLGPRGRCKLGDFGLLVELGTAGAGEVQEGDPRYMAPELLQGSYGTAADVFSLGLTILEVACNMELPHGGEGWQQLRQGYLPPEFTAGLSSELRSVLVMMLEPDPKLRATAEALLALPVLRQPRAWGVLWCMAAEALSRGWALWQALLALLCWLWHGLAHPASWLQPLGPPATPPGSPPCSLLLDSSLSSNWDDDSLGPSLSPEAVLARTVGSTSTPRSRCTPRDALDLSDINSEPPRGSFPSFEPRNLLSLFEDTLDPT

CAMKK2 = molecular target: T5, CAMKK2 (Homo sapiens, UniProt Q96RR4)
T5 construct: purchased Eurofins DiscoverX KINOMEscan

ACVR1B = molecular target: T6, ACVR1B (Homo sapiens, UniProt P36896)
T6 construct: purchased Eurofins DiscoverX KINOMEscan
T6 sequence (P36896 24-505): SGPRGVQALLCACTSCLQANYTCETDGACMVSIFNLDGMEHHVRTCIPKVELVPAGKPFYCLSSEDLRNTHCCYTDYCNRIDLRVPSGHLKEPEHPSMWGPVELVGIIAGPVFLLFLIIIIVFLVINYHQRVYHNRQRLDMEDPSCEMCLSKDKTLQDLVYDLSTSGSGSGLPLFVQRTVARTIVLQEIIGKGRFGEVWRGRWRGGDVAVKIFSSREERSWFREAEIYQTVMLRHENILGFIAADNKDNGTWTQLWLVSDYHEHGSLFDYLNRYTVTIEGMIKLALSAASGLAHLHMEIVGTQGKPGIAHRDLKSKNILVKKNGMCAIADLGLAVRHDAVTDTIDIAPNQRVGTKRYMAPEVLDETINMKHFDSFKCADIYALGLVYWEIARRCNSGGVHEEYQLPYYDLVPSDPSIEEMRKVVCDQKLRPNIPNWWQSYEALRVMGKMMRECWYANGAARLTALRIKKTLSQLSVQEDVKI

T5 sequence (Q96RR4 whole entry): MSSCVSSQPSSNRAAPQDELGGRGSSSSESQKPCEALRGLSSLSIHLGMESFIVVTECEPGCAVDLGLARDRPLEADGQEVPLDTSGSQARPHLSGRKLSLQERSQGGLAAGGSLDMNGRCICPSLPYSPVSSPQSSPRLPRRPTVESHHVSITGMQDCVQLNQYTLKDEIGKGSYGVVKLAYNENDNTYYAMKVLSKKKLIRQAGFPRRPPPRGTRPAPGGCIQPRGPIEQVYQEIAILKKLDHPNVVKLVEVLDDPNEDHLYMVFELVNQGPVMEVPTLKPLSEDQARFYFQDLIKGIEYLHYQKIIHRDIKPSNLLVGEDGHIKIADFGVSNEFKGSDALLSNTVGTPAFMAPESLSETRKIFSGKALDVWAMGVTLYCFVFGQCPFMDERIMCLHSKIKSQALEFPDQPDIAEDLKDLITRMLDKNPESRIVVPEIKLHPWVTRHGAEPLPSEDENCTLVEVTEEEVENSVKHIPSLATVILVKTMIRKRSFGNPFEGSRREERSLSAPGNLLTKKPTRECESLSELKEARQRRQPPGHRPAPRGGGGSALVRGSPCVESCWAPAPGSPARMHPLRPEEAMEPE
T2 sequence (Q9BVS4 whole entry): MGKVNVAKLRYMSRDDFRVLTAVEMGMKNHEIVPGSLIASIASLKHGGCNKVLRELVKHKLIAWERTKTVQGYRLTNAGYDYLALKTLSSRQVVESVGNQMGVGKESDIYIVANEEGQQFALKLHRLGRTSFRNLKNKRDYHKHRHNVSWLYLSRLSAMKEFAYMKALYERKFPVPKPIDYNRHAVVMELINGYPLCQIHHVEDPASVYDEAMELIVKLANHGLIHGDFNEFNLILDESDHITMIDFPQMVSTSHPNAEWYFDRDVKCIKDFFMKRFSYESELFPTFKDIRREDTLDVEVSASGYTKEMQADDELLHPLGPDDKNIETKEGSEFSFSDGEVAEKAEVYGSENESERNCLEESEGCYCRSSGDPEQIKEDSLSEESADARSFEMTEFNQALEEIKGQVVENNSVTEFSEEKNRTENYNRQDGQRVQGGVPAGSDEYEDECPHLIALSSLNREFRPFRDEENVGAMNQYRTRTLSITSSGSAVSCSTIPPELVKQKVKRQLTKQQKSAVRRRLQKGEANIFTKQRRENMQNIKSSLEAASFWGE

Row | Compound | remaining binding at 1 µM (MKK7) | remaining binding at 1 µM (RIOK2) | remaining binding at 1 µM (FLT3(K663Q)) | remaining binding at 1 µM (PKMYT1) | remaining binding at 1 µM (CAMKK2) | remaining binding at 1 µM (ACVR1B)
1 | Clc1cc(NCC2CC2)c2ncc(-c3ccc4[nH]ncc4c3)n2n1 [compound 2, 6-Chloro-N-(cyclopropylmethyl)-3-(1H-indazol-5-yl)imidazo[1,2-b]pyridazin-8-amine] | 92% | 70% | 3.8% | 81% | 99% | 89%
2 | O=C(CN1CCOCC1)N[C@H]1CC[C@H](Nc2cc(Cl)nn3c(-c4ccc5[nH]ncc5c4)cnc23)CC1 [compound 26] | 100% | 67% | 13% | 94% | 42% | 91%
3 | CN1CCC(CNc2cc(Cl)nn3c(-c4cc5nc(Nc6ccccc6)[nH]c5cc4F)cnc23)CC1 [compound 31, 6-Chloro-3-(6-fluoro-2-(phenylamino)-1H-benzo[d]imidazol-5-yl)-N-((1-methylpiperidin-4-yl)methyl)imidazo[1,2-b]pyridazin-8-amine] | 93% | 61% | 83% | 100% | 100% | 100%
